The values that follow are results of earlier work, collected in US20210195875A1 (SMC GLOBAL ASSET, INC., priority 2016, published 2021).

In one series the test system is mice. The settings on record: icv STZ alone.

“Also recorded” adds a separate entry of the source.

Take `Cn1c(N)nc2ncc(-c3ccccc3)cc21` [PhIP, 2-amino-1-methyl-6-phenyl-1H-imidazo[4,5-b] pyridine]: the “toxicity in rat primary cultured cells” value in the series with dopaminergic neuron is on record as “toxicity in a dopaminergic neuron selective manner; also recorded: toxicity in a dopamine nerve selective manner”.

`CN(N=O)C(=O)N[C@H]1C(O)O[C@H](CO)[C@@H](O)[C@@H]1O` (mixture of isomers) [icv STZ, streptozotocin]: the “aggregation of a pathologic protein such as amyloid and tau” value in the series with mice is given as “no aggregation of a pathologic protein”. Besides, the “inflammation and neural function disorder” value in the series with mice (compared with a gene modified model) is “intense inflammation and neural function disorder”.
